This is an account of results in patent US8722658B2, “Azetidinyl diamides as monoacylglycerol lipase inhibitors” (Janssen Pharmaceutica, NV, priority 2009, dated 2014).

In assay [1] the test system is rat, CFA-induced thermal hypersensitivity. Description: CFA-Induced Paw Radiant Heat Hypersensitivity. It counts as in vivo. The settings on record: 30 mg/kg p.o., HPβCD, group mean values, last time point 180 or 300 min. Here is the method:
Each rat was placed in a test chamber on a warm glass surface and allowed to acclimate for approximately 10 min. A radiant thermal stimulus (beam of light) was then focused through the glass onto the plantar surface of each hind paw in turn. The thermal stimulus was automatically shut off by a photoelectric relay when the paw was moved or when the cut-off time was reached (20 sec for radiant heat at ˜5 amps). An initial (baseline) response latency to the thermal stimulus was recorded for each animal prior to the injection of complete Freund's adjuvant (CFA). 24 h following intraplantar CFA injection, the response latency of the animal to the thermal stimulus was then re-evaluated and compared to the animal's baseline response time. […] Post-compound treatment withdrawal latencies were assessed at fixed time intervals, typically 30, 60, 120, 180, and 300 min.
The percent reversal (% R) of hypersensitivity was calculated in one of two different ways: 1) using group mean values or 2) using individual animal values. […]
For all compounds, the % R of hypersensitivity was calculated using the mean value for groups of animals at each time point according to the following formula: % reversal=[(group treatment response−group CFA response)/(group baseline response−group CFA response)]×100 Results are given for the maximum % reversal observed for each compound at any time point tested. […]

Assay [2] addresses T1, mutant MGL (Homo sapiens, UniProt Q99685, L169S/L176S).
T1 sequence (Q99685 1-303 L169S/L176S): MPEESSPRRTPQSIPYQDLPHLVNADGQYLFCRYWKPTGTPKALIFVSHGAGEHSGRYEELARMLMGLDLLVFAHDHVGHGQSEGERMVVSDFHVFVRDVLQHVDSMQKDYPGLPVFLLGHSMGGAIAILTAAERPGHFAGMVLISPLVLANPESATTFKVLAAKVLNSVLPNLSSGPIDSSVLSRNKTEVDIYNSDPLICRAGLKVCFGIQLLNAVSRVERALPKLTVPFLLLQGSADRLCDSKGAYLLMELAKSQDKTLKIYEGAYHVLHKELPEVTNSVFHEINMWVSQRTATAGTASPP
In words: MGL ThermoFluor Assay-Mutant. As to conditions: read-out: MGL mutant ThermoFluor qKd (using qNMR conc.), compound concentration measured by qNMR. (In general: DSF heats the sample and reads unfolding from a dye or from intrinsic fluorescence.)
Description: The ThermoFluor (TF) assay is a 384-well plate-based binding assay that measures thermal stability of proteins^1,2. […] TF dye used in all experiments was 1,8-ANS (Invitrogen: A-47). Final TF assay conditions used for MGL studies were 0.07 mg/ml of mutant MGL, 100 μM ANS, 200 mM NaCl, 0.001% Tween-20 in 50 mM PIPES (pH=7.0).
Screening compound plates contained 100% DMSO compound solutions at a single concentration. […] Columns 12 and 24 were used as DMSO reference and contained no compound. […] Following compound dispension, protein and dye solutions were added to achieve the final assay volume of 3 μL.
Bar-coded assay plates were robotically loaded onto a thermostatically controlled PCR-type thermal block and then heated from 40 to 90° C. degrees at a ramp-rate of 1° C./min for all experiments. Fluorescence was measured by continuous illumination with UV light (Hamamatsu LC6), supplied via fiber optics and filtered through a band-pass filter (380-400 nm; >6 OD cutoff). Fluorescence emission of the entire 384-well plate was detected by measuring light intensity using a CCD camera (Sensys, Roper Scientific) filtered to detect 500±25 nm, resulting in simultaneous and independent readings of all 384 wells. […]

Consider `O=C(c1ccc(-c2cccc(C(F)(F)F)c2)c(Cl)c1)N1CC(N2CCN(C(=O)c3cscn3)CC2)C1` [Cpd 1102], for which the “Method 1: peak % reversal” value in assay [1] was determined as 38%.

As for `Cc1nc(C(=O)N2CCN(C3CN(C(=O)c4ccc(-c5cccc(C(F)(F)F)c5)cc4)C3)CC2)cs1` [Cpd 1217, 1-[(2-Methyl-l,3-thiazol-4-yl)carbonyl]-4-(1-{[3′-(trifluoromethyl)biphenyl-4-yl]carbonyl}azetidin-3-yl)piperazine], the Kd in assay [2] was found to be 104 nM.
